Biological target: T1, human V1a receptor (Homo sapiens, UniProt P37288)
T1 construct: expressed in transfected cells; host or cells: HEK293 cells, transiently transfected; cell membranes
Experiment: human V1a receptor binding studies (3H-Vasopressin, SPA beads)
Settings: membranes from HEK293 cells transiently transfected with human V1a receptor, Ki calculated from IC50 by the Cheng-Prussoff equation, read-out: pKi (hV1a) (converted)
Procedure: The human V1a receptor was cloned by RT-PCR from total human liver RNA. The coding sequence was subcloned in an expression vector after sequencing to confirm the identity of the amplified sequence. […] Cell membranes were prepared from HEK293 cells transiently transfected with the expression vector and grown in 20 liter fermenters with the following protocol.
50 g of cells are resuspended in 30 ml freshly prepared ice cold Lyses buffer (50 mM HEPES, 1 mM EDTA, 10 mM magnesium dichloride adjusted to pH=7.4+complete cocktail of protease inhibitor (Roche Diagnostics)). Homogenized with Polytron for 1 min and solicited on ice for 2×2 minutes at 80% intensity (Vibrate solicitor). The preparation is centrifuged 20 min at 500 g at 4° C., the pellet is discarded and the supernatant centrifuged 1 hour at 43′000 g at 4° C. (19′000 rpm). The pellet is resuspended in 12.5 ml Lyses buffer+12.5 ml sucrose 20% and homogenized using a Polytron for 1-2 min. The protein concentration is determined by the Bradford method and aliquots are stored at −80° C. until use. For binding studies 60 mg Yttrium silicate SPA beads (Habersham®) are mixed with an aliquot of membrane in binding buffer (50 mM Tris, 120 mM sodium chloride, 5 mM potassium chloride, 2 mM calcium dichloride, 10 mM magnesium dichloride) for 15 minutes with mixing. 50 μl of bead/membrane mixture is then added to each well of a 96 well plate, followed by 50 μl of 4 nM 3H-Vasopressin (American Radiolabeled Chemicals). For total binding measurement 100 μl of binding buffer are added to the respective wells, for non-specific binding 100 μl of 8.4 mM cold vasopressin and for compound testing 100 μl of a serial dilution of each compound in 2% dimethyl sulfoxide. The plate is incubated 1 h at room temperature, centrifuged 1 min at 1000 g and counted on a Packard Top-Count. Non-specific binding counts are subtracted from each well and data is normalized to the maximum specific binding set at 100%. To calculate an IC50 the curve is fitted using a non-linear regression model (XLfit) and the Ki is calculated using the Cheng-Prussoff equation.

T1 sequence (P37288 whole entry): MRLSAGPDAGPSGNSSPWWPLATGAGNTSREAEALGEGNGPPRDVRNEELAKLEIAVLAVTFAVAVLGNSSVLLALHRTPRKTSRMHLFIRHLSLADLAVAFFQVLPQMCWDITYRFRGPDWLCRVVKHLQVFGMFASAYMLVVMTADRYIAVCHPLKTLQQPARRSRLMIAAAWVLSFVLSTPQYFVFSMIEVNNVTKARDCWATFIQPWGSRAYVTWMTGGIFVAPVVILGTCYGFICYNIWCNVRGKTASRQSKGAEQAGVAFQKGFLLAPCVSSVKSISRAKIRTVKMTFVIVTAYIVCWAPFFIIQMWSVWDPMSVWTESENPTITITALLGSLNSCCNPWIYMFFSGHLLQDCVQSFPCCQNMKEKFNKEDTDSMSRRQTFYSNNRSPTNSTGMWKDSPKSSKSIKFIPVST

CC(C)(C)OC(=O)N1Cc2cc(Cl)ccc2-n2c(nnc2[C@H]2CC[C@H](c3ncccc3F)CC2)C1 [Example 28, trans-8-Chloro-1-[4-(3-fluoro-pyridin-2-yl)-cyclohexyl]-4H,6H-2,3,5,10b-tetraaza-benzo[e]azulene-5-carboxylic acid tert-butyl ester]
Ki: 0.2 nM

CN1Cc2cc(F)ccc2-n2c(nnc2[C@H]2CC[C@H](c3ncccc3F)CC2)C1 [Example 44, trans-8-Fluoro-[4-(3-fluoro-pyridin-2-yl)-cyclohexyl]-5-methyl-5,6-dihydro-4H-2,3,5,10b-tetraaza-benzo[e]azulene]
Ki: 8.91 nM

CN1Cc2cc(Cl)ccc2-n2c(nnc2[C@H]2CC[C@@H](c3ncccc3F)CC2)C1 [Example 47, cis-8-Chloro-1-[4-(3-fluoro-pyridin-2-yl)-cyclohexyl]-5-methyl-5,6-dihydro-4H-2,3,5,10b-tetraaza-benzo[e]azulene]
Ki: 25.1 nM

Fc1cccnc1[C@H]1CC[C@H](c2nnc3n2-c2ccc(Cl)cc2CNC3)CC1 [Example 29, trans-8-Chloro-1-[4-(3-fluoro-pyridin-2-yl)-cyclohexyl]-5,6-dihydro-4H-2,3,5,10b-tetraaza-benzo[e]azulene]
Ki: 1.51 nM

Clc1ccc2c(c1)CNCc1nnc([C@H]3CC[C@H](c4cc(Cl)ccn4)CC3)n1-2 [Example 26, trans-8-Chloro-1-[4-(4-chloro-pyridin-2-yl)-cyclohexyl]-5,6-dihydro-4H-2,3,5,10b-tetraaza-benzo[e]azulene]
Ki: 1 nM

Cc1cncc([C@H]2CC[C@H](c3nnc4n3-c3ccc(Cl)cc3CN(C(=O)OC(C)(C)C)C4)CC2)n1 [Example 72, trans-8-Chloro-1-[4-(6-methyl-pyrazin-2-yl)-cyclohexyl]-4H,6H-2,3,5,10b-tetraaza-benzo[e]azulene-5-carboxylic acid tert-butyl ester]
Ki: 1.2 nM

CN1Cc2cc(Cl)ccc2-n2c(nnc2[C@H]2CC[C@H](c3cnccn3)CC2)C1 [Example 71, trans-8-Chloro-5-methyl-1-(4-pyrazin-2-yl-cyclohexyl)-5,6-dihydro-4H-2,3,5,10b-tetraaza-benzo[e]azulene]
Ki: 1.7 nM

CN(C)S(=O)(=O)N1Cc2cc(Cl)ccc2-n2c(nnc2[C@H]2CC[C@H](c3ncccc3F)CC2)C1 [Example 41, trans-8-Chloro-1-[4-(3-fluoro-pyridin-2-yl)-cyclohexyl]-4H,6H-2,3,5,10b-tetraaza-benzo[e]azulene-5-sulfonic acid dimethylamide]
Ki: 0.603 nM

Fc1cccnc1[C@H]1CC[C@H](c2nnc3n2-c2ccc(Cl)cc2CN(C2CCC2)C3)CC1 [Example 33, trans-8-Chloro-5-cyclobutyl-[4-(3-fluoro-pyridin-2-yl)-cyclohexyl]-5,6-dihydro-4H-2,3,5,10b-tetraaza-benzo[e]azulene]
Ki: 0.302 nM

COc1cccc([C@H]2CC[C@H](c3nnc4n3-c3ccc(Cl)cc3CN(C)C4)CC2)n1 [Example 15, trans-8-Chloro-1-[4-(6-methoxy-pyridin-2-yl)-cyclohexyl]-5-methyl-5,6-dihydro-4H-2,3,5,10b-tetraaza-benzo[e]azulene]
Ki: 3.31 nM

CN1Cc2cc(Cl)ccc2-n2c(nnc2[C@H]2CC[C@H](c3ncccc3F)CC2)C1 [Example 30, trans-8-Chloro-1-[4-(3-fluoro-pyridin-2-yl)-cyclohexyl]-5-methyl-5,6-dihydro-4H-2,3,5,10b-tetraaza-benzo[e]azulene]
Ki: 0.603 nM

COCCN1Cc2cc(Cl)ccc2-n2c(nnc2[C@H]2CC[C@H](c3ncccc3F)CC2)C1 [Example 35, trans-8-Chloro-1-[4-(3-fluoro-pyridin-2-yl)-cyclohexyl]-5-(2-methoxy-ethyl)-5,6-dihydro-4H-2,3,5,10b-tetraaza-benzo[e]azulene]
Ki: 0.977 nM

Clc1ccc2c(c1)CNCc1nnc([C@H]3CC[C@H](c4cccc(Cl)n4)CC3)n1-2 [Example 17, trans-8-Chloro-1-[4-(6-chloro-pyridin-2-yl)-cyclohexyl]-5,6-dihydro-4H-2,3,5,10b-tetraaza-benzo[e]azulene]
Ki: 2.82 nM

CN1Cc2cc(Cl)ccc2-n2c(nnc2[C@H]2CC[C@H](c3ncccc3Cl)CC2)C1 [Example 84, trans-8-Chloro-1-[4-(3-chloro-pyridin-2-yl)-cyclohexyl]-5-methyl-5,6-dihydro-4H-2,3,5,10b-tetraaza-benzo[e]azulene]
Ki: 0.501 nM

Cc1nccc([C@H]2CC[C@H](c3nnc4n3-c3ccc(Cl)cc3CN(C)C4)CC2)n1 [Example 68, trans-8-Chloro-5-methyl-1-[4-(2-methyl-pyrimidin-4-yl)-cyclohexyl]-5,6-dihydro-4H-2,3,5,10b-tetraaza-benzo[e]azulene]
Ki: 126 nM

CC(C)(C)OC(=O)N1Cc2cc(Cl)ccc2-n2c(nnc2[C@H]2CC[C@H](c3ncc(F)cc3F)CC2)C1 [Example 85, trans-8-Chloro-1-[4-(3,5-difluoro-pyridin-2-yl)-cyclohexyl]-4H,6H-2,3,5,10b-tetraaza-benzo[e]azulene-5-carboxylic acid tert-butyl ester]
Ki: 1.1 nM

Clc1ccc2c(c1)CNCc1nnc([C@H]3CC[C@H](c4ncccn4)CC3)n1-2 [Example 59, trans-8-Chloro-1-(4-pyrimidin-2-yl-cyclohexyl)-5,6-dihydro-4H-2,3,5,10b-tetraaza-benzo[e]azulene]
Ki: 9.33 nM

CC(C)(C)OC(=O)N1Cc2cc(Cl)ccc2-n2c(nnc2[C@H]2CC[C@H](c3ccccn3)CC2)C1 [Example 1, trans-8-Chloro-1-(4-pyridin-2-yl-cyclohexyl)-4H,6H-2,3,5,10b-tetraaza-benzo[e]azulene-5-carboxylic acid tert-butyl ester]
Ki: 1.91 nM

CC(C)(C)OC(=O)N1Cc2cc(Cl)ccc2-n2c(nnc2[C@H]2CC[C@H](c3cccnc3Cl)CC2)C1 [Example 51, trans-8-Chloro-1-[4-(2-chloro-pyridin-3-yl)-cyclohexyl]-4H,6H-2,3,5,10b-tetraaza-benzo[e]azulene-5-carboxylic acid tert-butyl ester]
Ki: 2.19 nM

COc1cccc([C@H]2CC[C@H](c3nnc4n3-c3ccc(Cl)cc3CNC4)CC2)n1 [Example 14, trans-8-Chloro-1-[4-(6-methoxy-pyridin-2-yl)-cyclohexyl]-5,6-dihydro-4H-2,3,5,10b-tetraaza-benzo[e]azulene]
Ki: 56.2 nM

CCc1cccc([C@H]2CC[C@H](c3nnc4n3-c3ccc(Cl)cc3CN(C)C4)CC2)n1 [Example 9, trans-8-Chloro-1-[4-(6-ethyl-pyridin-2-yl)-cyclohexyl]-5-methyl-5,6-dihydro-4H-2,3,5,10b-tetraaza-benzo[e]azulene]
Ki: 1.1 nM

CN1Cc2cc(Cl)ccc2-n2c(nnc2[C@H]2CC[C@@H](c3ncccn3)CC2)C1 [Example 62, cis-8-Chloro-5-methyl-1-(4-pyrimidin-2-yl-cyclohexyl)-5,6-dihydro-4H-2,3,5,10b-tetraaza-benzo[e]azulene]
Ki: 95.5 nM

Cc1cnc(C)c([C@H]2CC[C@H](c3nnc4n3-c3ccc(Cl)cc3CN(C(=O)OC(C)(C)C)C4)CC2)n1 [Example 78, trans-8-Chloro-1-[4-(3,6-dimethyl-pyrazin-2-yl)-cyclohexyl]-4H,6H-2,3,5,10b-tetraaza-benzo[e]azulene-5-carboxylic acid tert-butyl ester]
Ki: 0.794 nM

Clc1ccc2c(c1)CNCc1nnc([C@H]3CC[C@H](c4ncccc4Cl)CC3)n1-2 [Example 83, trans-8-Chloro-1-[4-(3-chloro-pyridin-2-yl)-cyclohexyl]-5,6-dihydro-4H-2,3,5,10b-tetraaza-benzo[e]azulene]
Ki: 7.24 nM

Fc1cccc([C@H]2CC[C@H](c3nnc4n3-c3ccc(Cl)cc3CNC4)CC2)n1 [Example 20, trans-8-Chloro-1-[4-(6-fluoro-pyridin-2-yl)-cyclohexyl]-5,6-dihydro-4H-2,3,5,10b-tetraaza-benzo[e]azulene]
Ki: 16.6 nM

COc1cccc([C@H]2CC[C@H](c3nnc4n3-c3ccc(Cl)cc3CN(C(=O)OC(C)(C)C)C4)CC2)n1 [Example 13, trans-8-Chloro-1-[4-(6-methoxy-pyridin-2-yl)-cyclohexyl]-4H,6H-2,3,5,10b-tetraaza-benzoazulene-5-carboxylic acid tert-butyl ester]
Ki: 0.501 nM

CCN1Cc2cc(Cl)ccc2-n2c(nnc2[C@H]2CC[C@H](c3ncccc3F)CC2)C1 [Example 31, trans-8-Chloro-5-ethyl-[4-(3-fluoro-pyridin-2-yl)-cyclohexyl]-5,6-dihydro-4H-2,3,5,10b-tetraaza-benzo[e]azulene]
Ki: 0.562 nM

CN1Cc2cc(Cl)ccc2-n2c(nnc2[C@H]2CC[C@H](c3cccnc3Cl)CC2)C1 [Example 53, trans-8-Chloro-1-[4-(2-chloro-pyridin-3-yl)-cyclohexyl]-5-methyl-5,6-dihydro-4H-2,3,5,10b-tetraaza-benzo[e]azulene]
Ki: 13.8 nM
